This assay deals with T1, ERβ (estrogen receptor β) (Homo sapiens, UniProt Q92731).
T1 construct: gene ESR2; full-length ERβ
Nature of the assay: fluorescence polarization competition binding (PolarScreen ERβ Competitor Assay, Fluormone Tracer). On the technique in general: Polarisation of emitted light reports the rotation of a fluorescent probe.

pIC50: −log10 of the molar value.

Consider one compound from paper PMC5356633, “Arctigenin functions as a selective agonist of estrogen receptor β to restrict mTORC1 activation and consequent Th17 differentiation” (Oncotarget, 2016).

T1 sequence (Q92731 whole entry): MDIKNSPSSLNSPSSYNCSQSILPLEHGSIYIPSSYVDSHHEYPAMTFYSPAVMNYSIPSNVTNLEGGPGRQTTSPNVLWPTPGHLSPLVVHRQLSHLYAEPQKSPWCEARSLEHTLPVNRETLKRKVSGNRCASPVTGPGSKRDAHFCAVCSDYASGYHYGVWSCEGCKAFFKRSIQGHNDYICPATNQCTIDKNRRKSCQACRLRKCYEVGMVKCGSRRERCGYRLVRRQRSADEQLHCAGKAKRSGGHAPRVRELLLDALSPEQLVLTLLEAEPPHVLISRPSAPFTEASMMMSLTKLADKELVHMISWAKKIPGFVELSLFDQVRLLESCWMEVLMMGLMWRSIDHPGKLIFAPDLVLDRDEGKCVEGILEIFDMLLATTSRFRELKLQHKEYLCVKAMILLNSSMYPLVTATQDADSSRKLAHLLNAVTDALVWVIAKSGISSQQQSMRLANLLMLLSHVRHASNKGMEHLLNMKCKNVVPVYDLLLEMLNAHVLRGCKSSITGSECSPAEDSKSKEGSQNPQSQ

`COc1cc(C[C@H]2C(=O)OC[C@@H]2Cc2ccc(OC)c(OC)c2)ccc1O` [ARCG, arctigenin] showed a pIC50 of 5.48.

Broadly, the pIC50 is −log10 of the IC50, conventionally taken in molar units.
